Our source for the IC50 values is patent publication US11512090B2, “Muscarinic acetylcholine M1 receptor antagonists” (PIPELINE THERAPEUTICS, INC., priority 2018, dated 2022).

Read-outs that look alike come from different tables or passages of the source.

What all share (format): cell-based
One test deals with T1, human M1 receptor (Homo sapiens, UniProt P11229).
T1 sequence (P11229 1-460): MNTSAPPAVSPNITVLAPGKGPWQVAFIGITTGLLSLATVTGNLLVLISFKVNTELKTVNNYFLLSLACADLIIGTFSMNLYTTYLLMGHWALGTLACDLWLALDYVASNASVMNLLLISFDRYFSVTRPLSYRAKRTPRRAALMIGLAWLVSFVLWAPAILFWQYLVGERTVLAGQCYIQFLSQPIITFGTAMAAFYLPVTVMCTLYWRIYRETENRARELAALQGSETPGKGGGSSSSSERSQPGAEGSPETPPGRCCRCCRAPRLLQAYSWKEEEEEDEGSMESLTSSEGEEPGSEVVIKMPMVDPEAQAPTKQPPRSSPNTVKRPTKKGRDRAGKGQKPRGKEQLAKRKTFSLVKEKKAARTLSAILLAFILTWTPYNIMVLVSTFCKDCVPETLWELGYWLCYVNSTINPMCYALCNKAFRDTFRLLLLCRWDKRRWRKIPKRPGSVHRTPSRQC
The experiment in a line: In vitro functional assay of muscarinic acetylcholine receptor activity (aequorin calcium flux, antagonist mode vs EC80 acetylcholine), M1. In a few lines: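 Antagonism at M1 was measured as a concentration-dependent reduction of the EC80 acetylcholine-evoked aequorin luminescence, from which IC50 was derived. Human M1 CHO-K1 aequorin cells were first loaded with 5 uM coelenterazine h for 4 h and exposed to compound for 30 min at room temperature.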
(A change in cytosolic calcium serves as a functional read-out for many receptors and channels.)

The next test concerns the target M3 (Homo sapiens, UniProt P20309). The experiment in a line: In vitro functional assay of muscarinic acetylcholine receptor activity, M3. As to conditions: antagonist IC50 at M3; read-out: M3 IC50.
The next test concerns the target T2, M2 (Homo sapiens, UniProt P08172).
T2 sequence (P08172 1-466): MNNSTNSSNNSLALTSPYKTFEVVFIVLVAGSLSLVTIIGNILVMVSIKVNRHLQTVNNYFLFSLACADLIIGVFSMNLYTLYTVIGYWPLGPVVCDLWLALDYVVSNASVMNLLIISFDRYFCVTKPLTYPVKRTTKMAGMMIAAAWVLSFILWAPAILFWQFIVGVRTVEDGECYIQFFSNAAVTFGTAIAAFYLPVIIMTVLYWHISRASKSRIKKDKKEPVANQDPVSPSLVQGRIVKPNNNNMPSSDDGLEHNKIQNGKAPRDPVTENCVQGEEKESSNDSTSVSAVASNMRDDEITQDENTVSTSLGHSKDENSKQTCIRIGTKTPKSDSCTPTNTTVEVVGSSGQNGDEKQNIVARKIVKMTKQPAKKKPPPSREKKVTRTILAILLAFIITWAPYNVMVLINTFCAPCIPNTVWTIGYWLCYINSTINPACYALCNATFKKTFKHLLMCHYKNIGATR
The test can be described thus: In vitro functional assay of muscarinic acetylcholine receptor activity, M2. The following applies: antagonist IC50 at M2; read-out: M2 IC50.

[1] abbreviates: CHO-K1 cells stably expressing human M1 receptor with Aequorin, decrease in EC80 acetylcholine response, read-out: M1 IC50.

By IC50 is commonly meant the concentration at which inhibition is half-maximal.

Chain of M3 (P20309 whole entry): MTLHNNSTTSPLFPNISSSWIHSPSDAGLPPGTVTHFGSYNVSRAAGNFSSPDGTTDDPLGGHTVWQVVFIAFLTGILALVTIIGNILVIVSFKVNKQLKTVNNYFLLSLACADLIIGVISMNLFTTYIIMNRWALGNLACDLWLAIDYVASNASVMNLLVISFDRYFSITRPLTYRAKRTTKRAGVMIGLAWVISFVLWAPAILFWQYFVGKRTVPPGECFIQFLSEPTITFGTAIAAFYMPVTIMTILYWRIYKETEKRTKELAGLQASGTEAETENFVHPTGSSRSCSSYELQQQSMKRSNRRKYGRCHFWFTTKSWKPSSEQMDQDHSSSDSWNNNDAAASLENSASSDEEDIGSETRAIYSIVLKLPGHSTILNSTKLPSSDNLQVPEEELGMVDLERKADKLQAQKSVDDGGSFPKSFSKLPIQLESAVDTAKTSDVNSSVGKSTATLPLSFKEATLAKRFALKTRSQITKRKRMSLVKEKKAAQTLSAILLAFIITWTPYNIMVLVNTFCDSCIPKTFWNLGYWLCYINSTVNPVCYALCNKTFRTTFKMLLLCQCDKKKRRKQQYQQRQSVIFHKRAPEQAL

Regarding `COc1cnc2cccc(CCCC(=O)N3CCN(c4ccncc4F)CC3)c2c1` [Example 74, 1-(4-(3-fluoropyridin-4-yl)piperazin-1-yl)-4-(3-methoxyquinolin-5-yl)butan-1-one], the IC50 is 1000 to 10000 nM on human M1 receptor (setting [1]), more than 10000 nM on M3 and more than 10000 nM at M2.

On to `O=C(COCc1cccc2nccn12)N1C[C@H]2CC[C@@H](C1)N2c1ccncc1F` [Example 75, 1-((1R,5S)-8-(3-fluoropyridin-4-yl)-3,8-diazabicyclo[3.2.1]octan-3-yl)-2-(imidazol[1,2-a]pyridin-5-ylmethoxy)ethan-1-one], for which the half-maximal inhibitory concentration (IC50) on human M1 receptor (setting [1]) was 1000 to 10000 nM; at M3, more than 10000 nM; at M2, 1000 to 10000 nM.

As to `COc1cnc2cccc(COCCC(=O)N3C[C@H]4CC[C@@H](C3)N4c3ccncc3F)c2c1` [Example 76, 1-((1R,5S)-8-(3-fluoropyridin-4-yl)-3,8-diazabicyclo[3.2.1]octan-3-yl)-3-((3-methoxyquinolin-5-yl)methoxy)propan-1-one], the IC50 at human M1 receptor was less than 100 nM; on M3, 1000 to 10000 nM; on M2, 1000 to 10000 nM.

On to `C[C@@H]1CN(c2ccncc2Cl)CCN1C(=O)CCCc1cccc2ncccc12` [Example 77, (R)-1-(4-(3-chloropyridin-4-yl)-2-methylpiperazin-1-yl)-4-(quinolin-5-yl)butan-1-one], for which the concentration for half-maximal inhibition (IC50) was less than 100 nM on human M1 receptor (setting [1]), 1000 to 10000 nM on M3 and 1000 to 10000 nM on M2.

Take `Cc1ccncc1N1CCN(C(=O)CCCc2cccc3ncccc23)[C@H](C)C1` [Example 78, (R)-1-(2-methyl-4-(4-methylpyridin-3-yl)piperazin-1-yl)-4-(quinolin-5-yl)butan-1-one]: the figures for the IC50 on human M1 receptor (setting [1]), at M3 and on M2 were less than 100 nM, 1000 to 10000 nM and 1000 to 10000 nM, respectively.

In the case of `Cc1cc(Cl)cnc1N1CCN(C(=O)CCCc2cccc3ncccc23)[C@H](C)C1` [Example 79, (R)-1-(4-(5-chloro-3-methylpyridin-2-yl)-2-methylpiperazin-1-yl)-4-(quinolin-5-yl)butan-1-one], the IC50 at human M1 receptor (setting [1]) is less than 100 nM; at M3, 100 to 1000 nM; at M2, less than 100 nM.

Regarding `Cc1cc(F)cnc1N1CCN(C(=O)CCCc2cccc3ncsc23)[C@@H](C)C1` [Example 81, (S)-4-(benzo[d]thiazol-7-yl)-1-(4-(5-fluoro-3-methylpyridin-2-yl)-2-methylpiperazin-1-yl)butan-1-one], the IC50 at human M1 receptor (setting [1]) was less than 100 nM; at M3, 1000 to 10000 nM; at M2 it was 100 to 1000 nM.

Consider `Cc1cc(F)cnc1N1CCN(C(=O)CCCc2cccc3ncncc23)[C@@H](C)C1` [Example 82, (S)-1-(4-(5-fluoro-3-methylpyridin-2-yl)-2-methylpiperazin-1-yl)-4-(quinazolin-5-yl)butan-1-one], for which the IC50 is less than 100 nM on human M1 receptor (setting [1]), 1000 to 10000 nM at M3 and 1000 to 10000 nM at M2.

In the case of `Cc1cc(F)cnc1N1CCN(C(=O)CCCc2cccc3nccn23)[C@@H](C)C1` [Example 84, (S)-1-(4-(5-fluoro-3-methylpyridin-2-yl)-2-methylpiperazin-1-yl)-4-(imidazo[1,2-a]pyridin-5-yl)butan-1-one], the IC50 at human M1 receptor (setting [1]) was 1000 to 10000 nM; at M3 it was more than 10000 nM; at M2 it was more than 10000 nM.

On to `O=C(CCOCc1cccc2ncsc12)N1C[C@H]2CC[C@@H](C1)N2c1ccncc1F` [Example 85, 3-(benzo[d]thiazol-7-ylmethoxy)-1-((1R,5S)-8-(3-fluoropyridin-4-yl)-3,8-diazabicyclo[3.2.1]octan-3-yl)propan-1-one], for which the concentration for half-maximal inhibition (IC50) at human M1 receptor is less than 100 nM; on M3, 1000 to 10000 nM; at M2, 1000 to 10000 nM.

`O=C(COCc1cccc2ncsc12)N1C[C@H]2CC[C@@H](C1)N2c1ccncc1F` [Example 86, 2-(benzo[d]thiazol-7-ylmethoxy)-1-((1R,5S)-8-(3-fluoropyridin-4-yl)-3,8-diazabicyclo[3.2.1]octan-3-yl)ethan-1-one]: the IC50 at human M1 receptor (setting [1]) was 1000 to 10000 nM; on M3, more than 10000 nM; at M2, 1000 to 10000 nM.
